The results in this text go back to ChEMBL document CHEMBL1201862, “PubChem BioAssay data set” (2004).

SMILES strings stand for the structures.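 Method: 48-hour compound exposure of cells in 96-well plates, five concentrations, linear interpolation of endpoints. GI50 = concentration required for 50% inhibition of growth.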 Active and inactive are the calls of the source. No stated cut-off is given here; in the data, active = GI50 up to about 1.1 µM and inactive = higher. Non-standard residues stand in square brackets, D forms with d. Residues, ends and D or L forms follow the SMILES beside them. *: point of attachment. NMeF = CN[CH](Cc1ccccc1)C(=O)O; NMeV = CN[CH](C(=O)O)C(C)C; Boc = CC(C)(C)OC(=O)*

Common to all, as to assay: NCI-60 cell line screen, 48 h
Experiment [1] relates to A549.
Experiment [2] deals with COLO 205.
The test system of experiment [3] is HCT-15.
The subject of experiment [4] is HOP-62.
Experiment [5] concerns HT-29.
For experiment [6], the system named is IGROV-1.
The test system of experiment [7] is M14.
Experiment [8] has as its system NCI-H23.
The test system of experiment [9] is RXF 393.
Experiment [10] deals with SK-MEL-2.
The test system of experiment [11] is SK-OV-3.
The test system of experiment [12] is SN12C.
Experiment [13] relates to SNB-19.
In experiment [14] the test system is SNB-75.
For experiment [15], the system named is SW-620.
In experiment [16] the test system is HL-60.

Turning to `NC(CCC(=O)NC(CSSCCCCS(=O)O)C(=O)NCC(=O)O)C(=O)O` (stereo not given), the GI50 in experiment [1] was > 100 µM (inactive); in experiment [2], > 100 µM (inactive); in [3], > 100 µM; in experiment [4], > 100 µM (inactive); in experiment [5], > 100 µM (inactive); in experiment [6], > 100 µM (inactive). In addition, the GI50 in experiment [7], in experiment [8], in experiment [9], in [10], in experiment [11] and in experiment [12] was > 100 µM (inactive) throughout. Further, the results for the GI50 in experiment [13], in experiment [14] and in experiment [15] were > 100 µM (inactive), 23.4 µM (inactive) and > 100 µM (inactive), respectively.

On to `CCCCCCCCC/C=C1\CCC(CN(C)C)C1=O` (stereo not given), for which the GI50 in experiment [1] is 4.39 µM (inactive); in experiment [2] it was 2.29 µM (inactive); in [3], 2.22 µM; in experiment [16], 1.94 µM (inactive); in experiment [4], 2.08 µM (inactive); in experiment [5] it was 1.7 µM (inactive). Further, the GI50 was 2.63 µM (inactive) in experiment [6]; 1.84 µM (inactive) in experiment [7]; 2.44 µM (inactive) in [8]; 2.72 µM (inactive) in [10]; 17.2 µM (inactive) in [11]; 2.08 µM (inactive) in [12]. Moreover, the GI50 in experiment [13] was 5.87 µM (inactive); in experiment [14], 2.37 µM (inactive); in experiment [15], 1.58 µM (inactive).

For `[N-]=[N+]=Nc1c(Br)c(=O)[nH]c(=O)n1COCCO`, the GI50 in experiment [1], in experiment [2], in experiment [16], in experiment [4], in [5] and in experiment [6] was > 100 µM (inactive) in each case. Besides, the GI50 in [7] was > 100 µM (inactive); in experiment [8] it was > 100 µM (inactive); in [9] it was > 100 µM (inactive); in experiment [12], > 100 µM (inactive); in experiment [13] it was > 100 µM (inactive); in experiment [14] it was 86.1 µM (inactive). The GI50 in experiment [15] is > 100 µM (inactive).

Take `CCOC(=O)c1ccc(N2C(=O)Cc3ccccc3C2=O)cc1`: the GI50 in [1] was > 100 µM (inactive); in experiment [2], > 10 µM (inactive); in [3], > 100 µM; in experiment [5], > 100 µM (inactive); in experiment [6] it was > 100 µM (inactive); in experiment [8] it was > 100 µM (inactive). Further, the GI50 in experiment [9], in [10], in [11], in [12], in experiment [13] and in [14] was > 100 µM (inactive) throughout. For the same molecule, the GI50 in experiment [15] is > 100 µM (inactive).

`COc1ccc2nc3cc(Cl)ccc3c(Sc3ccc(NC(C)=O)cc3)c2c1`: the GI50 was > 53.2 µM (inactive) in experiment [1]; 14.8 µM (inactive) in [2]; 19.4 µM (inactive) in experiment [16]; > 41.7 µM (inactive) in [4]; 92.3 µM (inactive) in [5]; > 32.4 µM (inactive) in experiment [6]. Besides, the GI50 in experiment [7] is 11.6 µM (inactive); in experiment [8] it was 13.8 µM (inactive); in experiment [9], 12.6 µM (inactive); in experiment [10] it was 12.3 µM (inactive); in experiment [11], > 22.4 µM (inactive); in experiment [12] it was 14.9 µM (inactive). The figures for the GI50 in experiment [14] and in [15] were > 24 µM (inactive) and 14.2 µM (inactive), respectively.

Turning to `Cc1ccc(-c2nc3ccccc3c(=O)n2NC2OC(CO)C(O)C(O)C2O)cc1` (stereo not given), the GI50 was > 100 µM (inactive) in experiment [1]; > 100 µM (inactive) in experiment [2]; > 100 µM in experiment [3]; > 100 µM (inactive) in [16]; > 100 µM (inactive) in experiment [4]; > 100 µM (inactive) in experiment [5]. Further, the GI50 in experiment [6], in [7], in [8], in [10], in [11] and in experiment [12] was > 100 µM (inactive) throughout. For the same molecule, the GI50 in experiment [13], in experiment [14] and in experiment [15] was > 100 µM (inactive) throughout.

On to `CC(=O)OC1COC(N2C(=O)C(=O)c3cc(Br)ccc32)C(OC(C)=O)C1OC(C)=O` (stereo not given), for which the GI50 in experiment [1] was > 100 µM (inactive); in experiment [2] it was > 100 µM (inactive); in experiment [3] it was > 100 µM; in experiment [4], > 100 µM (inactive); in experiment [5] it was > 100 µM (inactive); in experiment [6], > 100 µM (inactive). The GI50 in experiment [7], in experiment [8], in [9], in experiment [10], in experiment [11] and in experiment [12] was > 100 µM (inactive) throughout. The GI50 in experiment [13], in experiment [14] and in [15] was > 100 µM (inactive) each time.

Turning to `CC(C)C(NC(=O)OC(C)(C)C)C(=O)N(C)C(Cc1ccccc1)C(=O)N(C)C(C(=O)N(C)C(C(=O)O)C(C)C)C(C)C` (stereo not given) (Boc-V[NMeF][NMeV][NMeV]-OH; configuration not given here), the GI50 is > 100 µM (inactive) in experiment [1]; > 100 µM (inactive) in experiment [2]; > 100 µM in experiment [3]; > 100 µM (inactive) in [16]; > 100 µM (inactive) in experiment [4]; > 100 µM (inactive) in experiment [5]. Also, the GI50 in experiment [6], in experiment [7], in experiment [8], in experiment [9], in experiment [12] and in experiment [13] was > 100 µM (inactive) each time. For the same molecule, in [15], the GI50 was > 100 µM (inactive).

Consider `O=C1C2=C(CCC2)Nc2cccc3ncn1c23`, for which the GI50 in experiment [1] was 33.7 µM (inactive); in experiment [2], 43.4 µM (inactive); in [3], 48.1 µM; in experiment [16], 15 µM (inactive); in [6], > 100 µM (inactive); in [8] it was 51.6 µM (inactive). The GI50 in experiment [9] is 96.4 µM (inactive); in [10] it was 56.5 µM (inactive); in experiment [11] it was 73.5 µM (inactive); in experiment [12], 55.1 µM (inactive); in experiment [13], > 100 µM (inactive); in experiment [15], 70.1 µM (inactive).

On to `COC(=O)C1CCc2c(OC)ccc(OC)c2C1=O` (stereo not given), for which the GI50 in experiment [1], in [2], in [16], in experiment [4], in experiment [5] and in experiment [6] was > 100 µM (inactive) in each case. For the same molecule, the GI50 in [7], in experiment [8], in experiment [10], in experiment [11], in experiment [13] and in experiment [15] was > 100 µM (inactive) in each case.

For `COc1ccccc1NC(=O)C1=C(C)NC(C)=C(C(=O)Nc2ccccc2OC)C1c1ccccc1OC`, the GI50 in experiment [1] is > 100 µM (inactive); in [2] it was 36.9 µM (inactive); in experiment [3], > 100 µM; in experiment [16] it was 75.2 µM (inactive); in [4], > 100 µM (inactive); in experiment [5], > 100 µM (inactive). Besides, the GI50 in experiment [6], in experiment [7], in experiment [8], in [10], in [11] and in experiment [12] was > 100 µM (inactive) each time. Besides, the GI50 is > 100 µM (inactive) in experiment [13], 19.3 µM (inactive) in [14] and > 100 µM (inactive) in [15].

As for `O=C(O)C(CS)NCc1c2ccccc2nc2ccccc12` (stereo not given), the GI50 is 91.6 µM (inactive) in experiment [1]; > 100 µM (inactive) in [2]; 31.6 µM in experiment [3]; 22.3 µM (inactive) in experiment [16]; 35.6 µM (inactive) in [5]; 27 µM (inactive) in [6]. Besides, the GI50 is 37.8 µM (inactive) in experiment [8]; 24.2 µM (inactive) in [9]; 68.2 µM (inactive) in experiment [10]; > 100 µM (inactive) in experiment [11]; 34.2 µM (inactive) in [12]; 58.6 µM (inactive) in experiment [13]. Moreover, the GI50 in [14] was 65.8 µM (inactive); in experiment [15], 37.4 µM (inactive).

With `O=C(CC(=O)N1N=C(c2ccccc2)C(/N=N/c2ccc(Cl)cc2)C1=O)Nc1ccccc1Cl` (stereo not given), the GI50 in experiment [1] was 13.2 µM (inactive); in experiment [2] it was > 100 µM (inactive); in [3], 51.2 µM; in experiment [16] it was 26.6 µM (inactive); in [4], 20.1 µM (inactive); in experiment [5], 37.4 µM (inactive). The GI50 in experiment [6] is 36.4 µM (inactive); in experiment [7] it was 28.1 µM (inactive); in [8], 29.4 µM (inactive); in experiment [10], 32.4 µM (inactive); in experiment [11] it was 18.8 µM (inactive); in [12], 92 µM (inactive). The GI50 is 21.2 µM (inactive) in experiment [13], 16.4 µM (inactive) in experiment [14] and 40.7 µM (inactive) in experiment [15].

Take `O=C1c2ccccc2C(=O)c2[nH]c(Cc3ccccc3F)nc21`: the GI50 in experiment [1] is 52.7 µM (inactive); in experiment [2], 33.7 µM (inactive); in experiment [3] it was 45.2 µM; in experiment [16] it was 35.6 µM (inactive); in experiment [4], 86.7 µM (inactive); in [5] it was 32.1 µM (inactive). For the same molecule, the GI50 is 84.1 µM (inactive) in experiment [7]; 27.7 µM (inactive) in experiment [8]; 20.2 µM (inactive) in experiment [9]; 60.1 µM (inactive) in experiment [10]; > 100 µM (inactive) in experiment [12]; 38.5 µM (inactive) in experiment [13]. Besides, the results for the GI50 in [14] and in [15] were 50.7 µM (inactive) and 37.9 µM (inactive), respectively.
